{"source": "patent US20040259732A1", "about": "“Treatment of plants and plant propagation materials with an antioxidant to improve plant health and/or yield” (Monsanto Technology, L.L.C., priority 2003, published 2004)", "key": {"[1]": {"test_system": "carrot seed", "conditions": "carrot seed treatment; cited from earlier work"}, "[2]": {"test_system": "seeds of black spruce and jack pine", "conditions": "seed soak at 0, 0.1, and 10 mg/l; cited from earlier work"}, "[3]": {"test_system": "carrot seeds", "conditions": "seed soak: gibberellic acid 1 and 100 microgram/l, Ambiol 0.1 mg/l, glycinebetaine 100 mg/l; cited from earlier work"}, "[4]": {"test_system": "Hybrid \"B\" corn seeds", "assay": "Cold condition germination test (Test 3), Hybrid B corn seeds", "assay_type": "in vivo", "conditions": "10° C.", "procedure": "(§1) This test was designed to measure the ability of seeds to germinate under adverse condition associated with high moisture and low temperature. Test 3-This test was conducted as described above in Test 1, except that the Petri dishes were incubated at a constant temperature of 10° C. Germination rate was determined as described above in Test 1. The test length continued for 30 days as the seeds are very slow to germinate under these conditions."}, "[5]": {"test_system": "Soybean plantlets (Hybrid AG3303)", "assay": "Fresh weight accumulation after cold shock, soybean plantlets", "assay_type": "in vivo", "conditions": "seed treated with 10-20 g/100 kg; one week 22° C./13° C.; measured 10 days after return to greenhouse", "procedure": "Soybean plantlets (Hybrid AG3303, available from Asgrow Seed Co., St. Louis, Mo.) that were grown in a greenhouse maintained at day/night temperatures of 30° C. day and 25° C. night and with a 12 hour light period. The seed had been treated with different levels of glycinebetaine and were grown in optimum greenhouse conditions until they reached the first trifoliate stage of development. The plants were then moved from the greenhouse and subjected to 22° C./13° C. day/night temperatures for one week in a Conviron growth chamber. After one week the plants were returned to the greenhouse for “recovery” in optimal conditions. The fresh weight accumulation of the plantlets was then measured after 10 days following their return to the greenhouse."}, "[6]": {"test_system": "cotton seeds", "conditions": "treated cotton seeds; cited from earlier work"}, "[7]": {"test_system": "Hybrid \"A\" corn seeds", "assay": "Cold condition germination test (Test 3), Hybrid A corn seeds", "assay_type": "in vivo", "conditions": "10° C.", "procedure": "as §1"}, "[8]": {"test_system": "Corn plantlets (Hybrid LH176rr1.4(LH224×LH226))", "assay": "Fresh weight accumulation after cold stress, corn plantlets", "assay_type": "in vivo", "conditions": "seed treated with 50-100 g/100 kg; 6 days 18° C./12° C."}, "[9]": {"test_system": "Hybrid \"A\" (cold tolerant) corn", "conditions": "10° C.; 25 g/100 kg seed", "procedure": "(§2) This test was designed to measure the emergence of plantlets from sprouted seeds under conditions that more closely resemble those found in field conditions.\n(§3) For each sample batch of seed to be tested, 10 seeds were placed on ½″ of soil medium in a test tray and covered with an additional 2″ of soil medium. Three replications were prepared for each sample batch. The soil is moistened regularly and placed in the desired temperature regime. For a cold emergence test, trays are incubated at 10° C. with 16 hours of light. The tray is monitored daily over a 30-day period and a seed is counted as emerged when the spike breaks through the surface of the soil. Percent emergence is calculated as the number of emerged plantlets divided by the total number of seeds that were planted, times 100.\n(§4) Corn hybrids “A” and “B”, as described above were treated with choline chloride at levels of 0, 10, 25 and 50 g/100 kg of seed. Each batch of seed was tested under 10° C. incubation conditions for emergence from a soil medium as described above."}, "[10]": {"test_system": "Hybrid \"B\" (cold sensitive) corn", "conditions": "10° C.", "procedure": "as §2, §3, §4"}, "[11]": {"test_system": "corn seed", "assay": "Field trials, emergence in cold conditions by seed treatment rate", "assay_type": "in vivo", "conditions": "rates from 25 g/100 Kg to 250 g/100 Kg", "procedure": "(§5) Samples of seed having each type of treatment shown in Table 3 were planted in a controlled field trial in the upper Midwestern United States. Conservation tillage practices were adhered to and planting was accomplished during the first 10% of the crop that got planted in that area. During the trial, the plant density (number of plants per acre) and the corn yield (bu/acre) were measured."}, "[12]": {"test_system": "corn seeds", "conditions": "optimum (warm) conditions; any of the treatment levels tested (10-250 g/100 kg seed)", "description": "Test 1—Ten seeds for each sample to be tested are placed in each of ten Petri dishes with 5 ml of distilled water and incubated at 30° C. day and 20° C. night with a 16 hour day length. Each day the Petri dishes were checked and scored for germination. Percent germination was determined as the average number of seeds which had germinated within the test period minus any abnormal seeds, divided by the total number of original seeds, times 100. A seed was considered germinated when the radical reached a length of 1 cm.\nTest 2—Test 2 is much closer to an industry standard for optimum condition testing. Test seeds are placed on a moist paper towel and then covered with a second moist paper towel. The towel is then rolled into a cylinder and placed upright in a beaker containing water. The beaker is placed in an incubation chamber at 25° C. for 7 days in continuous darkness. After 7 days the number of seeds germinated are counted and converted to a percentage of seeds in the test. This test is used to determine the maximum germination potential of the seed.\nAfter treatment, each seed sample was tested for germination in as described in Test 1, Test 2 and Test 3, as described above."}, "[13]": {"test_system": "Corn seeds (Hybrid LH176rr1.4(LH224×LH226))", "assay_type": "in vivo", "conditions": "field trial", "procedure": "Corn seeds (Hybrid LH176rr1.4(LH224×LH226, available from Holden's Foundation Seeds, Inc., Williamsburg, Iowa) were treated with an antioxidant, alone or in combination with a pesticide (silthiofam, available from Monsanto Co., St. Louis, Mo., under the trade name […]®, 11.83% w/w silthiofam) according to the rates shown in Table 3.\nas §5"}}, "data": [{"smiles": "Cc1nc2ccc(O)c(CN(C)C)c2[nH]1", "note": "[Ambiol, 2-methyl-4-[dimethylaminomethyl]-5-hydroxybenzimidazole]", "values": [{"measurement": "germination in carrots", "setting": "[1]", "value": "hastened germination"}, {"measurement": "membrane leakage", "setting": "[2]", "value": "reduced membrane leakage"}, {"measurement": "emergence of seedlings", "setting": "[3]", "value": "accelerated emergence of seedlings"}]}, {"smiles": "C[N+](C)(C)CC(=O)[O-]", "note": "[glycinebetaine]", "values": [{"measurement": "50% germination earlier than untreated control", "setting": "[4]; 50 g/100 kg", "value": "three-day earlier germination"}, {"measurement": "50% germination earlier than untreated control", "setting": "[4]; 100 g/100 kg", "value": "three-day earlier germination"}, {"measurement": "fresh weight accumulation following the cold shock", "setting": "[5]", "value": "greater fresh weight accumulation"}, {"measurement": "drought tolerance", "setting": "[6]", "value": "improvement in drought tolerance"}, {"measurement": "germination in carrots", "setting": "[1]", "value": "hastened germination"}, {"measurement": "emergence of seedlings", "setting": "[3]", "value": "accelerated emergence of seedlings"}]}, {"smiles": "C=C1C[C@]23C[C@@]1(O)CC[C@H]2[C@@]12C=C[C@H](O)[C@@](C)(C(=O)O1)[C@H]2[C@@H]3C(=O)O", "note": "[gibberellic acid]", "values": [{"measurement": "emergence of seedlings", "setting": "[3]", "value": "accelerated emergence of seedlings"}]}, {"smiles": "C[N+](C)(C)CCO.[Cl-]", "note": "[choline chloride]", "values": [{"measurement": "50% germination earlier than untreated control", "setting": "[7]; 100 g/100 kg (best rate)", "value": "two days earlier"}, {"measurement": "effect on germination rate", "setting": "[7]; lower treatment rates, FIG. 1A / FIG. 2A", "value": "substantially the same effect"}, {"measurement": "50% germination earlier than untreated control", "setting": "[4]; 50 g/100 kg", "value": "three days earlier"}, {"measurement": "50% germination earlier than untreated control", "setting": "[4]; 100 g/100 kg", "value": "three days earlier"}, {"measurement": "fresh weight accumulation after cold shock vs untreated seed", "setting": "[8]", "value": "tendency for greater fresh weight accumulation"}, {"measurement": "50% emergence earlier than untreated control", "setting": "[9]", "value": "three days before the untreated control"}, {"measurement": "day on which 50% emergence was reached", "setting": "[9]", "value": 22, "unit": "days"}, {"measurement": "days after seeding at which 50% germination was reached", "setting": "[10]; 10 g/100 kg seed", "value": 29, "unit": "days"}, {"measurement": "increase in germination time over untreated control", "setting": "[10]; 10 g/100 kg seed, study end 31 days", "value": "minimum of two days"}, {"measurement": "first evidence of emergence", "setting": "[10]; 10 g/100 kg treated seed", "value": 21, "unit": "days"}, {"measurement": "emergence as a function of rate", "setting": "[11]", "value": "emergence is found to increase with the increase of the rate"}, {"measurement": "effect on germination under normal growing conditions", "setting": "[12]", "value": "no negative effects on germination"}]}, {"smiles": "C=CCNC(=O)c1c([Si](C)(C)C)sc(C)c1C", "note": "[silthiofam, 4,5-dimethyl-N-(2-propenyl)-2-(trimethylsilyl)-3-thiophenecarboxamide]", "values": [{"measurement": "corn yield improvement over untreated control", "setting": "[13]; rates of Table 3 (silthiofam 25, choline chloride 250, glycinebetaine 50, BHA/BHT 10 g/100 kg seed), FIGS. 7B and 7C", "value": "~20", "unit": "%"}, {"measurement": "corn plant density (number of plants per acre)", "setting": "[13]; rates of Table 3, FIG. 7A", "value": "significant improvement in corn plant density"}]}]}
